PubChem BioAssay AID256 (DTP/NCI, 2004)
Values joined by “and” are separate entries in the source; they are usually repeats but may differ in a detail not shown here. Equal values may be shown once. Toxic doses and inconclusive results are not listed.

Tested on: CD2F1 mice, L1210 leukemia ip, survival T/C
Test: NCI In Vivo Anticancer Drug Screen. Data for tumor model L1210 Leukemia (intraperitoneal) in CD2F1 (CDF1) mice
Conditions: higher = longer survival
Summary of the method: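 Vehicle-treated tumor-bearing mice served as controls (C) for compound-treated mice (T). Reported figure is T divided by C.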

[1] = endpoint: mean survival time, dose: 100.0 mg/kg/injection, schedule: Q01DX009 (ip), vehicle: saline
[2] = endpoint: mean survival time, dose: 200.0 mg/kg/injection, schedule: Q01DX009 (ip), vehicle: saline
[3] = endpoint: mean survival time, dose: 200.0 mg/kg/injection, schedule: Q01DX001 (ip), vehicle: saline with Tween-80
[4] = endpoint: mean survival time, dose: 400.0 mg/kg/injection, schedule: Q01DX001 (ip), vehicle: saline with Tween-80
[5] = endpoint: mean survival time, dose: 50.0 mg/kg/injection, schedule: Q01DX009 (ip), vehicle: saline with Tween-80
[6] = endpoint: mean survival time, dose: 100.0 mg/kg/injection, schedule: Q01DX009 (ip), vehicle: saline with Tween-80
[7] = endpoint: mean survival time, dose: 200.0 mg/kg/injection, schedule: Q01DX009 (ip), vehicle: saline with Tween-80
[8] = endpoint: mean survival time, dose: 50.0 mg/kg/injection, schedule: Q01DX009 (ip), vehicle: saline
[9] = endpoint: mean survival time, dose: 100.0 mg/kg/injection, schedule: Q04DX003 (ip), vehicle: saline with Tween-80
[10] = endpoint: mean survival time, dose: 200.0 mg/kg/injection, schedule: Q04DX003 (ip), vehicle: saline with Tween-80
[11] = endpoint: mean survival time, dose: 400.0 mg/kg/injection, schedule: Q04DX003 (ip), vehicle: saline with Tween-80

OCCOC1CCC(O)C2CCCCC12 (stereo unspecified)
T/C (endpoint: mean survival time, dose: 100.0 mg/kg/injection, schedule: Q01DX001 (ip), vehicle: saline sonified): 103 % of control
T/C (endpoint: mean survival time, dose: 200.0 mg/kg/injection, schedule: Q01DX001 (ip), vehicle: saline sonified): 98 % of control
T/C (endpoint: mean survival time, dose: 400.0 mg/kg/injection, schedule: Q01DX001 (ip), vehicle: saline sonified): 109 % of control

OCCN(c1ccccc1)C1CCCCC1
T/C (endpoint: mean survival time, dose: 50.0 mg/kg/injection, schedule: Q01DX009 (ip), vehicle: Klucel (hydroxypropylcellulose) (HPC)): 113 % of control
T/C (endpoint: mean survival time, dose: 100.0 mg/kg/injection, schedule: Q01DX009 (ip), vehicle: Klucel (hydroxypropylcellulose) (HPC)): 102 % of control
T/C (endpoint: mean survival time, dose: 200.0 mg/kg/injection, schedule: Q01DX009 (ip), vehicle: Klucel (hydroxypropylcellulose) (HPC)): 106 % of control

COC1=C(OC)C(=O)C(SCCCc2ccccc2)=CC1=O
T/C (endpoint: mean survival time, dose: 6.25 mg/kg/injection, schedule: Q01DX009 (ip), vehicle: saline with Tween-80): 98 % of control
T/C (endpoint: mean survival time, dose: 12.5 mg/kg/injection, schedule: Q01DX009 (ip), vehicle: saline with Tween-80): 102 % of control
T/C (endpoint: mean survival time, dose: 25.0 mg/kg/injection, schedule: Q01DX009 (ip), vehicle: saline with Tween-80): 93 % of control

CC(C)(C)C=O
T/C [1]: 95 % of control
T/C [2]: 102 % of control
T/C (endpoint: mean survival time, dose: 400.0 mg/kg/injection, schedule: Q01DX009 (ip), vehicle: saline): 96 % of control

Nc1nc2c(ncn2-c2ccc(OCCCc3ccccc3)cc2)c(=O)[nH]1
T/C [3]: 88 % of control
T/C [4]: 89 % of control

COC(C)C(O)(c1ccccc1)c1ccccc1 (stereo unspecified)
T/C [5]: 101 % of control
T/C [6]: 101 % of control
T/C [7]: 96 % of control

COc1ccc(-c2nc3ccc(C)cc3c(=O)o2)cc1
T/C [5]: 89 % of control
T/C [6]: 93 % of control
T/C [7]: 89 % of control

C1OCC2[CH2][Hg][S][Hg][CH2]C1O2
T/C (endpoint: mean survival time, dose: 4.0 mg/kg/injection, schedule: Q01DX015 (ip), vehicle: saline): 109 % of control
T/C (endpoint: mean survival time, dose: 8.0 mg/kg/injection, schedule: Q01DX015 (ip), vehicle: saline): 107 % of control

CCCCCCCCCCCCCCCC(=O)NCC[N+](C)(C)C
T/C (endpoint: mean survival time, dose: 75.0 mg/kg/injection, schedule: Q01DX001 (ip), vehicle: saline): 107 % of control
T/C (endpoint: mean survival time, dose: 150.0 mg/kg/injection, schedule: Q01DX001 (ip), vehicle: saline): 104 % of control
T/C (endpoint: mean survival time, dose: 300.0 mg/kg/injection, schedule: Q01DX001 (ip), vehicle: saline): 104 % of control

COc1ccc(CC2C(=O)OC(=O)C2Cc2ccc(OC)c(OC)c2)cc1OC (stereo unspecified)
T/C [6]: 104 % of control
T/C [7]: 108 % of control
T/C (endpoint: mean survival time, dose: 400.0 mg/kg/injection, schedule: Q01DX009 (ip), vehicle: saline with Tween-80): 96 % of control

O=c1[nH]c2c(ccc3cnccc32)c2c1CCC2
T/C (endpoint: mean survival time, dose: 3.12 mg/kg/injection, schedule: Q01DX009 (ip), vehicle: saline): 107 % of control
T/C (endpoint: mean survival time, dose: 6.25 mg/kg/injection, schedule: Q01DX009 (ip), vehicle: saline): 100 % of control and 110 % of control
T/C (endpoint: mean survival time, dose: 12.5 mg/kg/injection, schedule: Q01DX009 (ip), vehicle: saline): 96 % of control and 107 % of control
T/C (endpoint: mean survival time, dose: 25.0 mg/kg/injection, schedule: Q01DX009 (ip), vehicle: saline): 119 % of control and 111 % of control
T/C [8]: 88 % of control and 96 % of control

CCOC(=O)CCC(NC(=O)c1ccc(NCc2cnc3nc(N)nc(N)c3c2)cc1)C(=O)OCC (stereo unspecified)
T/C (endpoint: median survival time, dose: 1.0 mg/kg/injection, schedule: Q01DX005 (ip), vehicle: saline with Tween-80): 153 % of control
T/C (endpoint: median survival time, dose: 2.0 mg/kg/injection, schedule: Q01DX005 (ip), vehicle: saline with Tween-80): 174 % of control

COP(=O)(CC1CO1)OC (stereo unspecified)
T/C [8]: 103 % of control
T/C [1]: 106 % of control
T/C [2]: 98 % of control

CC(C)(C)NC(=O)CCC(CC(=O)NC(C)(C)C)C1([N+](=O)[O-])CCCCC1 (stereo unspecified)
T/C [6]: 92 % of control
T/C [7]: 86 % of control

O=C(COc1ccc(Cl)cc1Cl)Nc1ccccc1F
T/C [9]: 100 % of control
T/C [10]: 94 % of control
T/C [11]: 94 % of control

CC(C)(C)CC(C)(C)C1=CC(=O)C(C(C)(C)CC(C)(C)C)=CC1=O
T/C (endpoint: mean survival time, dose: 100.0 mg/kg/injection, schedule: Q01DX001 (ip), vehicle: saline with Tween-80): 91 % of control
T/C [3]: 90 % of control
T/C [4]: 86 % of control

CCN(C(=O)Nc1ccccc1OC)c1ccccc1
T/C [9]: 98 % of control
T/C [10]: 98 % of control
T/C [11]: 93 % of control

COc1ccc(/C=N\NC(=O)CCCCCCCCC(=O)N/N=C\c2ccc(OC)c(O)c2)cc1O
T/C [5]: 97 % of control
T/C [6]: 97 % of control
T/C [7]: 105 % of control

CC(=O)Oc1ccc([N+](=O)[O-])cc1[N+](=O)[O-]
T/C (endpoint: mean survival time, dose: 25.0 mg/kg/injection, schedule: Q04DX002 (ip), vehicle: Klucel (hydroxypropylcellulose) (HPC)): 93 % of control

COC(=O)/C=C\n1cnc2ccccc21
T/C (endpoint: mean survival time, dose: 75.0 mg/kg/injection, schedule: Q01DX009 (ip), vehicle: other): 95 % of control
T/C (endpoint: mean survival time, dose: 150.0 mg/kg/injection, schedule: Q01DX009 (ip), vehicle: other): 101 % of control
T/C (endpoint: mean survival time, dose: 300.0 mg/kg/injection, schedule: Q01DX009 (ip), vehicle: other): 110 % of control
